Source: patent publication US20250213555A1, “SUBSTITUTED TETRAHYDROFURAN ANALOGS AS MODULATORS OF SODIUM CHANNELS” (VERTEX PHARMACEUTICALS INCORPORATED, priority 2021, published 2025)

Biological target: human Nav 1.8 (Homo sapiens, UniProt Q9Y5Y9)
Assay: E-VIPR assay detecting and measuring Nav inhibition properties
Assay type: cell-based
Conditions: HEK cells expressing a truncated form of human Nav 1.8; compound numbers without "*" (not marked as run in the presence of human serum); read-out: measured IC50 value in the E-VIPR Assay
How it was run: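 Nav inhibition was read by E-VIPR: cells were electrically stimulated while coumarin/oxonol FRET emissions were recorded. Cells were HEK expressing a truncated human Nav 1.8 and co-transduced with KIR2.1, and were assayed in 25% final human serum.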

human Nav 1.8, sequence (Q9Y5Y9 126-399 limits assumed): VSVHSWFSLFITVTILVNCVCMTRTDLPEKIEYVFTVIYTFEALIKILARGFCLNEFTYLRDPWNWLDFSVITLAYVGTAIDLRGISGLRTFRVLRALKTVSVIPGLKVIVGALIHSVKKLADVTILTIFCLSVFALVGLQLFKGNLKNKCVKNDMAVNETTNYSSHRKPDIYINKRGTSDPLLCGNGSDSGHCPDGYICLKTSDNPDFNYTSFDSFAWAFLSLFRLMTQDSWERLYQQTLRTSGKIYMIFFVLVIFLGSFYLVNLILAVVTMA
human Nav 1.8, sequence (Q9Y5Y9 660-890 limits assumed): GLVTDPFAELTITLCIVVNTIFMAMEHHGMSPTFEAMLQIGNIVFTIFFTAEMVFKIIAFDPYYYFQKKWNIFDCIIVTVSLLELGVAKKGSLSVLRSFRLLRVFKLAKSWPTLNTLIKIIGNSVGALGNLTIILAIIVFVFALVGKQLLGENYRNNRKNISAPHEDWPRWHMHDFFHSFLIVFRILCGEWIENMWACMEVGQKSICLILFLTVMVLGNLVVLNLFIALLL
human Nav 1.8, sequence (Q9Y5Y9 1148-1722 limits assumed): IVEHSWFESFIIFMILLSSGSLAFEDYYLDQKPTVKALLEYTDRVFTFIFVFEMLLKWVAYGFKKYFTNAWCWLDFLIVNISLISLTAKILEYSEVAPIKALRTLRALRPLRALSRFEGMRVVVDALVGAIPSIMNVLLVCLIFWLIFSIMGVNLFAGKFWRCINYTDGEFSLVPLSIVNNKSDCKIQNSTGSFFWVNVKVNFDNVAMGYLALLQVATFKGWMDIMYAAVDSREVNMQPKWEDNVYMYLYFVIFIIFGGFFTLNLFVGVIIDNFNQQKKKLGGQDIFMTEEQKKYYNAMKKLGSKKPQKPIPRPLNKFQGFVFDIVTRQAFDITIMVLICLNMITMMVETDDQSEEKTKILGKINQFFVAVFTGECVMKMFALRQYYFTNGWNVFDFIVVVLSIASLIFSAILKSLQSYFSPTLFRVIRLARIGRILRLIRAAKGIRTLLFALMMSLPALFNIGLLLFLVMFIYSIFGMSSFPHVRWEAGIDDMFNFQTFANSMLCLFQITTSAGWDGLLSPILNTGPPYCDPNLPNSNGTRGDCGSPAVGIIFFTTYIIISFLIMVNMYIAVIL

Row | IC50 [nM] | SMILES
1 | 10 to 100 | COC1(C)CN(CCOc2c([C@H]3[C@H](C(=O)Nc4ccnc(C(N)=O)c4)O[C@@](C)(C(F)(F)F)[C@H]3C)ccc(F)c2F)C1 [Compound 48, 4-((2R,3S,4S,5R)-3-(3,4-difluoro-2-(2-(3-methoxy-3-methylazetidin-1-yl)ethoxy)phenyl)-4,5-dimethyl-5-(trifluoromethyl)tetrahydrofuran-2-carboxamido)picolinamide]
2 | 10 to 100 | C[C@H]1[C@@H](c2ccc(F)c(F)c2OCCN2CC[C@H](F)C2)[C@H](C(=O)Nc2ccnc(C(N)=O)c2)O[C@@]1(C)C(F)(F)F [Compound 49, 4-((2R,3S,4S,5R)-3-(3,4-difluoro-2-(2-((S)-3-fluoropyrrolidin-1-yl)ethoxy)phenyl)-4,5-dimethyl-5-(trifluoromethyl)tetrahydrofuran-2-carboxamido)picolinamide]
3 | < 10 | C[C@H]1[C@@H](c2ccc(F)c(F)c2OCCN2CCOC3CC32)[C@H](C(=O)Nc2ccnc(C(N)=O)c2)O[C@@]1(C)C(F)(F)F (stereo partly drawn) [Compound 50, 4-((2R,3S,4S,5R)-3-(2-(2-(2-oxa-5-azabicyclo[4.1.0]heptan-5-yl)ethoxy)-3,4-difluorophenyl)-4,5-dimethyl-5-(trifluoromethyl)tetrahydrofuran-2-carboxamido)picolinamide]
4 | < 10 | CC1CN(CCOc2c([C@H]3[C@H](C(=O)Nc4ccnc(C(N)=O)c4)O[C@@](C)(C(F)(F)F)[C@H]3C)ccc(F)c2F)CCO1 (stereo partly drawn) [Compound 51, 4-((2R,3S,4S,5R)-3-(3,4-difluoro-2-(2-(2-methylmorpholino)ethoxy)phenyl)-4,5-dimethyl-5-(trifluoromethyl)tetrahydrofuran-2-carboxamido)picolinamide]
5 | < 10 | COC1CN(CCOc2c([C@H]3[C@H](C(=O)Nc4ccnc(C(N)=O)c4)O[C@@](C)(C(F)(F)F)[C@H]3C)ccc(F)c2F)C1 [Compound 52, 4-((2R,3S,4S,5R)-3-(3,4-difluoro-2-(2-(3-methoxyazetidin-1-yl)ethoxy)phenyl)-4,5-dimethyl-5-(trifluoromethyl)tetrahydrofuran-2-carboxamido)picolinamide]
6 | < 10 | C[C@H]1[C@@H](c2ccc(F)c(F)c2OCCN2CC3(COC3)C2)[C@H](C(=O)Nc2ccnc(C(N)=O)c2)O[C@@]1(C)C(F)(F)F [Compound 53, 4-((2R,3S,4S,5R)-3-(2-(2-(2-oxa-6-azaspiro[3.3]heptan-6-yl)ethoxy)-3,4-difluorophenyl)-4,5-dimethyl-5-(trifluoromethyl)tetrahydrofuran-2-carboxamido)picolinamide]
7 | 10 to 100 | C[C@H]1[C@@H](c2ccc(F)c(F)c2OCCN2CCC2)[C@H](C(=O)Nc2ccnc(C(N)=O)c2)O[C@@]1(C)C(F)(F)F [Compound 54, 4-((2R,3S,4S,5R)-3-(2-(2-(azetidin-1-yl)ethoxy)-3,4-difluorophenyl)-4,5-dimethyl-5-(trifluoromethyl)tetrahydrofuran-2-carboxamido)picolinamide]
8 | < 10 | C[C@H]1[C@@H](c2ccc(F)c(F)c2OCCN2C[C@H]3COC[C@H]3C2)[C@H](C(=O)Nc2ccnc(C(N)=O)c2)O[C@@]1(C)C(F)(F)F [Compound 55, 4-((2R,3S,4S,5R)-3-(3,4-difluoro-2-(2-((3aR,6aS)-tetrahydro-1H-furo[3,4-c]pyrrol-5(3H)-yl)ethoxy)phenyl)-4,5-dimethyl-5-(trifluoromethyl)tetrahydrofuran-2-carboxamido)picolinamide]
9 | < 10 | C[C@@H]1COCCN1CCOc1c([C@H]2[C@H](C(=O)Nc3ccnc(C(N)=O)c3)O[C@@](C)(C(F)(F)F)[C@H]2C)ccc(F)c1F [Compound 56, 4-((2R,3S,4S,5R)-3-(3,4-difluoro-2-(2-((R)-3-methylmorpholino)ethoxy)phenyl)-4,5-dimethyl-5-(trifluoromethyl)tetrahydrofuran-2-carboxamido)picolinamide]

More lines, now with the values behind:

Row | SMILES | IC50 [nM]
10 | COc1c([C@H]2[C@H](C(=O)Nc3cc(C(=O)N4CCNCC4)ncc3F)O[C@@](C)(C(F)(F)F)[C@H]2C)ccc(F)c1F [Compound 16, (2R,3S,4S,5R)-3-(3,4-difluoro-2-methoxy-phenyl)-N-[5-fluoro-2-(piperazine-1-carbonyl)-4-pyridyl]-4,5-dimethyl-5-(trifluoromethyl)tetrahydrofuran-2-carboxamide] | 10 to 100
11 | COc1c([C@H]2[C@H](C(=O)Nc3cccc(C(=O)N4CCNCC4)n3)O[C@@](C)(C(F)(F)F)[C@H]2C)ccc(F)c1F [Compound 17, (2R,3S,4S,5R)-3-(3,4-difluoro-2-methoxyphenyl)-4,5-dimethyl-N-(6-(piperazine-1-carbonyl)pyridin-2-yl)-5-(trifluoromethyl)tetrahydrofuran-2-carboxamide] | 10 to 100
12 | COc1c([C@H]2[C@H](C(=O)Nc3cc(C(=O)N4CCNCC4)ccn3)O[C@@](C)(C(F)(F)F)[C@H]2C)ccc(F)c1F [Compound 18, (2R,3S,4S,5R)-3-(3,4-difluoro-2-methoxyphenyl)-4,5-dimethyl-N-(4-(piperazine-1-carbonyl)pyridin-2-yl)-5-(trifluoromethyl)tetrahydrofuran-2-carboxamide] | 10 to 100
13 | COc1c([C@H]2[C@H](C(=O)Nc3ccnc(C(=O)N4CCNCC4)n3)O[C@@](C)(C(F)(F)F)[C@H]2C)ccc(F)c1F [Compound 19, (2R,3S,4S,5R)-3-(3,4-difluoro-2-methoxyphenyl)-4,5-dimethyl-N-(2-(piperazine-1-carbonyl)pyrimidin-4-yl)-5-(trifluoromethyl)tetrahydrofuran-2-carboxamide] | 10 to 100
14 | COc1c([C@H]2[C@H](C(=O)Nc3nccc(C(=O)N4CCNCC4)n3)O[C@@](C)(C(F)(F)F)[C@H]2C)ccc(F)c1F [Compound 20, (2R,3S,4S,5R)-3-(3,4-difluoro-2-methoxyphenyl)-4,5-dimethyl-N-(4-(piperazine-1-carbonyl)pyrimidin-2-yl)-5-(trifluoromethyl)tetrahydrofuran-2-carboxamide] | 10 to 100
15 | COc1c([C@H]2[C@H](C(=O)Nc3cc(C(=O)N4CCNCC4)ncn3)O[C@@](C)(C(F)(F)F)[C@H]2C)ccc(F)c1F [Compound 21, (2R,3S,4S,5R)-3-(3,4-difluoro-2-methoxyphenyl)-4,5-dimethyl-N-(6-(piperazine-1-carbonyl)pyrimidin-4-yl)-5-(trifluoromethyl)tetrahydrofuran-2-carboxamide] | 10 to 100
16 | COc1c([C@H]2[C@H](C(=O)Nc3cc(C(=O)N4CCN(C)CC4)ncn3)O[C@@](C)(C(F)(F)F)[C@H]2C)ccc(F)c1F [Compound 22, (2R,3S,4S,5R)-3-(3,4-difluoro-2-methoxyphenyl)-4,5-dimethyl-N-(6-(4-methylpiperazine-1-carbonyl)pyrimidin-4-yl)-5-(trifluoromethyl)tetrahydrofuran-2-carboxamide] | 100 to 1000
17 | COc1c([C@H]2[C@H](C(=O)Nc3cc(C(N)=O)ncc3[Si](C)(C)C)O[C@@](C)(C(F)(F)F)[C@H]2C)ccc(F)c1F [Compound 23, 4-((2R,3S,4S,5R)-3-(3,4-difluoro-2-methoxyphenyl)-4,5-dimethyl-5-(trifluoromethyl)tetrahydrofuran-2-carboxamido)-5-(trimethylsilyl)picolinamide] | 100 to 1000
18 | CNC(=O)c1cc(NC(=O)[C@@H]2O[C@@](C)(C(F)(F)F)[C@@H](C)[C@H]2c2ccc(F)c(F)c2OCCO)ccn1 [Compound 38, 4-((2R,3S,4S,5R)-3-(3,4-difluoro-2-(2-hydroxyethoxy)phenyl)-4,5-dimethyl-5-(trifluoromethyl)tetrahydrofuran-2-carboxamido)-N-methylpicolinamide] | < 10
19 | C[C@@H](COc1c([C@H]2[C@H](C(=O)Nc3ccnc(C(N)=O)c3)O[C@@](C)(C(F)(F)F)[C@H]2C)ccc(F)c1F)N1CC2(COC2)C1 [Compound 40, 4-((2R,3S,4S,5R)-3-(2-((S)-2-(2-oxa-6-azaspiro[3.3]heptan-6-yl)propoxy)-3,4-difluorophenyl)-4,5-dimethyl-5-(trifluoromethyl)tetrahydrofuran-2-carboxamido)picolinamide] | < 10
20 | CNC(=O)c1cc(NC(=O)[C@@H]2O[C@@](C)(C(F)(F)F)[C@@H](C)[C@H]2c2ccc(F)c(F)c2OC[C@@H](C)N2CC3(COC3)C2)ccn1 [Compound 41, 4-((2R,3S,4S,5R)-3-(2-((R)-2-(2-oxa-6-azaspiro[3.3]heptan-6-yl)propoxy)-3,4-difluorophenyl)-4,5-dimethyl-5-(trifluoromethyl)tetrahydrofuran-2-carboxamido)-N-methylpicolinamide] | 100 to 1000
21 | C[C@H](COc1c([C@H]2[C@H](C(=O)Nc3ccnc(C(N)=O)c3)O[C@@](C)(C(F)(F)F)[C@H]2C)ccc(F)c1F)N1CC2(COC2)C1 [Compound 42, 4-((2R,3S,4S,5R)-3-(2-((R)-2-(2-oxa-6-azaspiro[3.3]heptan-6-yl)propoxy)-3,4-difluorophenyl)-4,5-dimethyl-5-(trifluoromethyl)tetrahydrofuran-2-carboxamido)picolinamide] | 10 to 100
22 | CNC(=O)c1cc(NC(=O)[C@@H]2O[C@@](C)(C(F)(F)F)[C@@H](C)[C@H]2c2ccc(F)c(F)c2OC[C@H](C)N2CC3(COC3)C2)ccn1 [Compound 43, 4-((2R,3S,4S,5R)-3-(2-((S)-2-(2-oxa-6-azaspiro[3.3]heptan-6-yl)propoxy)-3,4-difluorophenyl)-4,5-dimethyl-5-(trifluoromethyl)tetrahydrofuran-2-carboxamido)-N-methylpicolinamide] | < 10
23 | C[C@H]1[C@@H](c2ccc(F)c(F)c2OCCN(C)C)[C@H](C(=O)Nc2ccnc(C(N)=O)c2)O[C@@]1(C)C(F)(F)F [Compound 44, 4-((2R,3S,4S,5R)-3-(2-(2-(dimethylamino)ethoxy)-3,4-difluorophenyl)-4,5-dimethyl-5-(trifluoromethyl)tetrahydrofuran-2-carboxamido) picolinamide] | 10 to 100
24 | C[C@H]1[C@@H](c2ccc(F)c(F)c2OCCn2ccnc2)[C@H](C(=O)Nc2ccnc(C(N)=O)c2)O[C@@]1(C)C(F)(F)F [Compound 45, 4-((2R,3S,4S,5R)-3-(2-(2-(1H-imidazol-1-yl)ethoxy)-3,4-difluorophenyl)-4,5-dimethyl-5-(trifluoromethyl)tetrahydrofuran-2-carboxamido)picolinamide] | < 10
